Assay results taken from patent US7888523B2, “Preparation of platinum(II) complexes” (Platco Technologies (Proprietary) Limited, priority 2004, dated 2011).

How the values were obtained:
cervical cancer cells = test: Anticancer testing, inhibition of cervical cancer cells; assay type: cell-based; conditions: for inhibition on cervical cancer cells: medium containing 10 mM glutathione
Protocol: (§1) Anticancer testing on the halogenoplatinum(II) complex of Example 8 was performed and compared with cisplatin. […] The corresponding values for cisplatin are 85.6% and 93.2%. The corresponding data on cervical cancer cells are 88.5 and 95.9% at 10 and 100 μM solutions. The corresponding values for cisplatin are 85.4 and 95% respectively. A further study in which 100 μM solutions were used in a medium containing 10 mM glutathione, the halogenoplatinum(II) complex performed even better, viz.

breast cancer cells = test: Anticancer testing, inhibition of breast cancer cells; assay type: cell-based; conditions: 100 μM solution, medium containing 10 mM glutathione
Protocol: as §1

[1] = Anti-cancer properties (test not specified); conditions: statement in words, no test details
colon cancer cells = test: Anticancer testing, inhibition of colon cancer cells; assay type: cell-based; conditions: for inhibition on colon cells: medium containing 10 mM glutathione
Protocol: as §1

In the case of `CSCc1nccn1C.[Cl][Pt][Cl]` [Pt(mmtei)Cl2, bis-chloro-(1-methyl-2-methylthiomethyl-imidazole)platinum(II)], the “percentage inhibition on cervical cancer cells” value (cervical cancer cells; 10 μM solution) was 88.5%, the “percentage inhibition on cervical cancer cells” value (cervical cancer cells; 100 μM solution) was 95.9% and the “inhibition on cervical cancer cells” value (cervical cancer cells; 100 μM solution) was 99.3%. For the same molecule, the “inhibition on breast cancer cells” value (breast cancer cells) was 66.1%, the anti-cancer properties [1] was “exceptional anti-cancer properties” and the “percentage inhibition on colon cancer cells” value (colon cancer cells; 10 μM solution) was 92.8%. For the same molecule, the “percentage inhibition on colon cancer cells” value (colon cancer cells; 100 μM solution) was 97.0% and the “inhibition on colon cells” value (colon cancer cells; 100 μM solution) was 98.2%.
In the case of `N.N.[Cl][Pt][Cl]` [cisplatin, reference compound], the “percentage inhibition on cervical cancer cells” value (cervical cancer cells; 100 μM solution) was 95%, the “inhibition on cervical cancer cells” value (cervical cancer cells; 100 μM solution) was 58.6% and the “inhibition on breast cancer cells” value (breast cancer cells) was 14%. For the same molecule, the “percentage inhibition on colon cancer cells” value (colon cancer cells; 10 μM solution) was 85.6%, the “percentage inhibition on colon cancer cells” value (colon cancer cells; 100 μM solution) was 93.2% and the “inhibition on colon cells” value (colon cancer cells; 100 μM solution) was 48.0%.
